{"source": "patent US10308637B2", "about": "(LifeSci Pharmaceuticals, Inc., priority 2015, dated 2019)"}
{"experiment": "Contact Assay (percentage inhibition from fluorescence intensity)", "format": "biochemical", "experimental": "The percentage inhibition was calculated using the following equation:\n[formula] where, Mean(BG) is the average value of the fluorescence intensity of the background wells and Mean(PC) is the average value of the fluorescence intensity of the positive control wells.\nTable 4 provides the EC50 values of various compounds disclosed herein.", "units": {"EC50": "nM"}}
{"smiles": "Cc1cnc2c(S(C)(=O)=O)cc(Cc3cc(C(=O)NCc4c(C)cc(N)nc4C)ccn3)cc2c1", "note": "[Example 15, N-((6-amino-2,4-dimethylpyridin-3-yl)methyl)-2-((3-methyl-8-(methylsulfonyl)quinolin-6-yl)methyl)isonicotinamide]", "EC50": "≤ 100"}
{"smiles": "Cc1cnc2c(S(C)(=O)=O)cc(Cc3cc(C(=O)NCc4ccc5c(N)nccc5c4)ccn3)cc2c1", "note": "[Example 16, N-((1-aminoisoquinolin-6-yl)methyl)-2-((3-methyl-8-(methylsulfonyl)quinolin-6-yl)methyl)isonicotinamide]", "EC50": "≤ 100"}
{"smiles": "Cc1cnc2c(S(C)(=O)=O)cc(Cc3cc(C(=O)NCc4cc5c(Cl)c[nH]c5cc4F)ccn3)cc2c1", "note": "[Example 17, N-((3-chloro-6-fluoro-1H-indol-5-yl)methyl)-2-((3-methyl-8-(methylsulfonyl)quinolin-6-yl)methyl)isonicotinamide]", "EC50": "≤ 100"}
{"smiles": "Cc1cnc2c(S(C)(=O)=O)cc(Cc3cc(C(=O)NCc4cc5cc[nH]c5cc4F)ccn3)cc2c1", "note": "[Example 18, N-((6-fluoro-1H-indol-5-yl)methyl)-2-((3-methyl-8-(methylsulfonyl)quinolin-6-yl)methyl)isonicotinamide]", "EC50": "100 to 1000"}
{"smiles": "Cc1cnc2c(S(C)(=O)=O)cc(Cc3cc(C(=O)NCc4n[nH]c5ccc(Cl)cc45)ccn3)cc2c1", "note": "[Example 20, N-((5-chloro-1H-indazol-3-yl)methyl)-2-((3-methyl-8-(methylsulfonyl)quinolin-6-yl)methyl)isonicotinamide]", "EC50": "≤ 100"}
{"smiles": "Cc1cnc2c(S(C)(=O)=O)cc(Cc3cc(C(=O)NCc4ccc5[nH]cc(Cl)c5c4F)ccn3)cc2c1", "note": "[Example 21, N-((3-chloro-4-fluoro-1H-indol-5-yl)methyl)-2-((3-methyl-8-(methylsulfonyl)quinolin-6-yl)methyl)isonicotinamide]", "EC50": "≤ 100"}
{"smiles": "Cc1nc(N)ccc1CNC(=O)c1ccnc(Cc2ccc3ncc(Cl)cc3c2)c1", "note": "[Example 34, N-((6-amino-2-methylpyridin-3-yl)methyl)-2-((3-chloroquinolin-6-yl)methyl)isonicotinamide]", "EC50": "≤ 100"}
{"smiles": "Cc1cc(N)nc(C)c1CNC(=O)c1ccnc(Cc2ccc3ncc(Cl)cc3c2)c1", "note": "[Example 35, N-((6-amino-2,4-dimethylpyridin-3-yl)methyl)-2-((3-chloroquinolin-6-yl)methyl)isonicotinamide]", "EC50": "≤ 100"}
{"smiles": "O=C(NCc1cnc2[nH]cc(Cl)c2c1)c1ccnc(Cc2ccc3ncc(Cl)cc3c2)c1", "note": "[Example 38, N-(3-Chloro-1H-pyrrolo[2,3-b]pyridin-5-ylmethyl)-2-(3-chloro-quinolin-6-ylmethyl)-isonicotinamide]", "EC50": "100 to 1000"}
{"smiles": "O=C(NCc1ccc2[nH]cc(Cl)c2c1F)c1ccnc(Cc2ccc3ncc(Cl)cc3c2)c1", "note": "[Example 40, N-(3-Chloro-4-fluoro-1H-indol-5-ylmethyl)-2-(3-chloro-quinolin-6-ylmethyl)-isonicotinamide]", "EC50": "100 to 1000"}
{"smiles": "N#Cc1cc(Cc2cc(C(=O)NCc3ccc4c(N)nccc4c3)ccn2)cc2cc(Cl)cnc12", "note": "[Example 57, N-(1-amino-isoquinolin-6-ylmethyl)-2-(3-chloro-8-cyano-quinolin-6-ylmethyl)-isonicotinamide]", "EC50": "100 to 1000"}
{"smiles": "NC(=O)c1cc(Cc2cc(C(=O)NCc3n[nH]c4ccc(Cl)cc34)ccn2)cc2cc(Cl)cnc12", "note": "[Example 60, 3-chloro-6-((4-(((5-chloro-1H-indazol-3-yl)methyl)carbamoyl)pyridin-2-yl)methyl)quinoline-8-carboxamide]", "EC50": "100 to 1000"}
{"smiles": "NC(=O)c1cc(Cc2cc(C(=O)NCc3cnc4[nH]cc(Cl)c4c3)ccn2)cc2cc(Cl)cnc12", "note": "[Example 61, 3-chloro-6-((4-(((3-chloro-1H-pyrrolo[2,3-b]pyridin-5-yl)methyl)carbamoyl)pyridin-2-yl)methyl)quinoline-8-carboxamide]", "EC50": "100 to 1000"}
{"smiles": "Cc1nc(N)ccc1CNC(=O)c1ccnc(Cc2cc(C(N)=O)c3ncc(Cl)cc3c2)c1", "note": "[Example 62, 6-((4-(((6-amino-2-methylpyridin-3-yl)methyl)carbamoyl)pyridin-2-yl)methyl)-3-chloroquinoline-8-carboxamide]", "EC50": "≤ 100"}
{"smiles": "NC(=O)c1cc(Cc2cc(C(=O)NCc3ccc4c(N)nccc4c3)ccn2)cc2cc(Cl)cnc12", "note": "[Example 64, 6-((4-(((1-aminoisoquinolin-6-yl)methyl)carbamoyl)pyridin-2-yl)methyl)-3-chloroquinoline-8-carboxamide]", "EC50": "≤ 100"}
{"smiles": "NC(=O)c1cc(Cc2cc(C(=O)NCc3ccc4[nH]cc(Cl)c4c3F)ccn2)cc2cc(Cl)cnc12", "note": "[Example 65, 3-chloro-6-((4-(((3-chloro-4-fluoro-1H-indol-5-yl)methyl)carbamoyl)pyridin-2-yl)methyl)quinoline-8-carboxamide]", "EC50": "≤ 100"}
{"smiles": "NC(=O)c1cc(Cc2cc(C(=O)NCc3cc4cc[nH]c4cc3F)ccn2)cc2cc(Cl)cnc12", "note": "[Example 66, 3-chloro-6-((4-(((6-fluoro-1H-indol-5-yl)methyl)carbamoyl)pyridin-2-yl)methyl)quinoline-8-carboxamide]", "EC50": "100 to 1000"}
{"smiles": "Cc1cc(N)nc(C)c1CNC(=O)c1ccnc(Cc2cc(S(C)(=O)=O)c3ncc(Cl)cc3c2)c1", "note": "[Example 67, N-((6-amino-2,4-dimethylpyridin-3-yl)methyl)-2-((3-chloro-8-(methylsulfonyl)quinolin-6-yl)methyl)isonicotinamide]", "EC50": "≤ 100"}
{"smiles": "CS(=O)(=O)c1cc(Cc2cc(C(=O)NCc3cc4c(Cl)c[nH]c4cc3F)ccn2)cc2cc(Cl)cnc12", "note": "[Example 68, N-((3-chloro-6-fluoro-1H-indol-5-yl)methyl)-2-((3-chloro-8-(methylsulfonyl)quinolin-6-yl)methyl)isonicotinamide]", "EC50": "≤ 100"}
{"smiles": "Cc1nc(N)ccc1CNC(=O)c1ccnc(Cc2cc(S(C)(=O)=O)c3ncc(Cl)cc3c2)c1", "note": "[Example 69, N-((6-amino-2-methylpyridin-3-yl)methyl)-2-((3-chloro-8-(methylsulfonyl)quinolin-6-yl)methyl)isonicotinamide]", "EC50": "≤ 100"}
{"smiles": "Cc1cnc2c(C#N)cc(Cc3cc(C(=O)NCc4c(C)cc(N)nc4C)ccn3)cc2c1", "note": "[Example 70, N-((6-amino-2,4-dimethylpyridin-3-yl)methyl)-2-((8-cyano-3-methylquinolin-6-yl)methyl)isonicotinamide]", "EC50": "≤ 100"}
{"smiles": "Cc1cnc2c(C#N)cc(Cc3cc(C(=O)NCc4ccc5c(N)nccc5c4)ccn3)cc2c1", "note": "[Example 71, N-((1-aminoisoquinolin-6-yl)methyl)-2-((8-cyano-3-methylquinolin-6-yl)methyl)isonicotinamide]", "EC50": "≤ 100"}
{"smiles": "Cc1cnc2c(C#N)cc(Cc3cc(C(=O)NCc4cnc5[nH]cc(Cl)c5c4)ccn3)cc2c1", "note": "[Example 73, N-((3-chloro-1H-pyrrolo[2,3-b]pyridin-5-yl)methyl)-2-((8-cyano-3-methylquinolin-6-yl)methyl)isonicotinamide]", "EC50": "100 to 1000"}
{"smiles": "Cc1cnc2c(C(N)=O)cc(Cc3cc(C(=O)NCc4c(C)cc(N)nc4C)ccn3)cc2c1", "note": "[Example 77, 6-((4-(((6-amino-2,4-dimethylpyridin-3-yl)methyl)carbamoyl)pyridin-2-yl)methyl)-3-methylquinoline-8-carboxamide]", "EC50": "≤ 100"}
{"smiles": "Cc1cnc2c(C(N)=O)cc(Cc3cc(C(=O)NCc4cc5c(Cl)c[nH]c5cc4F)ccn3)cc2c1", "note": "[Example 78, 6-((4-(((3-chloro-6-fluoro-1H-indol-5-yl)methyl)carbamoyl)pyridin-2-yl)methyl)-3-methylquinoline-8-carboxamide]", "EC50": "≤ 100"}
{"smiles": "Cc1cnc2c(C(N)=O)cc(Cc3cc(C(=O)NCc4ccc5c(N)nccc5c4)ccn3)cc2c1", "note": "[Example 79, 6-((4-(((1-aminoisoquinolin-6-yl)methyl)carbamoyl)pyridin-2-yl)methyl)-3-methylquinoline-8-carboxamide]", "EC50": "≤ 100"}
{"smiles": "Cc1cnc2c(C(N)=O)cc(Cc3cc(C(=O)NCc4cnc5[nH]cc(Cl)c5c4)ccn3)cc2c1", "note": "[Example 80, 6-((4-(((3-chloro-1H-pyrrolo[2,3-b]pyridin-5-yl)methyl)carbamoyl)pyridin-2-yl)methyl)-3-methylquinoline-8-carboxamide]", "EC50": "≤ 100"}
{"smiles": "Cc1cnc2c(C(N)=O)cc(Cc3cc(C(=O)NCc4cc5cc[nH]c5cc4F)ccn3)cc2c1", "note": "[Example 83, 6-((4-(((6-fluoro-1H-indol-5-yl)methyl)carbamoyl)pyridin-2-yl)methyl)-3-methylquinoline-8-carboxamide]", "EC50": "100 to 1000"}
{"smiles": "Cc1cnc2c(C(=O)O)cc(Cc3cc(C(=O)NCc4c(C)cc(N)nc4C)ccn3)cc2c1", "note": "[Example 84, 6-((4-(((6-amino-2,4-dimethylpyridin-3-yl)methyl)carbamoyl)pyridin-2-yl)methyl)-3-methylquinoline-8-carboxylic acid]", "EC50": "≤ 100"}
{"smiles": "Cc1cc(N)nc(C)c1CNC(=O)c1ccnc(Cc2cc(F)c3ncc(Cl)cc3c2)c1", "note": "[Example 89, N-(6-amino-2,4-dimethyl-pyridin-3-ylmethyl)-2-(3-chloro-8-fluoro-quinolin-6-ylmethyl)-isonicotinamide]", "EC50": "≤ 100"}
{"smiles": "Cc1nc(N)ccc1CNC(=O)c1ccnc(Cc2cc(F)c3ncc(Cl)cc3c2)c1", "note": "[Example 91, N-(6-amino-2-methyl-pyridin-3-ylmethyl)-2-(3-chloro-8-fluoro-quinolin-6-ylmethyl)-isonicotinamide]", "EC50": "≤ 100"}
{"smiles": "COC(=O)c1cc(Cc2cc(C(=O)NCc3c(C)cc(N)nc3C)ccn2)cc2cc(Cl)cnc12", "note": "[Example 92, methyl 6-((4-(((6-amino-2,4-dimethylpyridin-3-yl)methyl)carbamoyl)pyridin-2-yl)methyl)-3-chloroquinoline-8-carboxylate]", "EC50": "≤ 100"}
{"smiles": "Cc1cc(N)nc(C)c1CNC(=O)c1ccnc(Cc2cc(C(=O)O)c3ncc(Cl)cc3c2)c1", "note": "[Example 93, 6-((4-(((6-amino-2,4-dimethylpyridin-3-yl)methyl)carbamoyl)pyridin-2-yl)methyl)-3-chloroquinoline-8-carboxylic acid]", "EC50": "≤ 100"}
{"smiles": "Cc1nc(N)ccc1CNC(=O)c1ccnc(Cc2cc(CO)c3ncc(Cl)cc3c2)c1", "note": "[Example 97, N-((6-amino-2-methylpyridin-3-yl)methyl)-2-((3-chloro-8-(hydroxymethyl)quinolin-6-yl)methyl)isonicotinamide]", "EC50": "≤ 100"}
